Source: patent US8298782B2, “Reversible MHC multimer staining for functional purification of antigen-specific T cells” (priority 2000, dated 2012)
pKd: −log10 of the molar value.

How the values were obtained:
[1] = test system: LLO91-99-specific T cells; test: MHC tetramer staining, TCR expression, annexin V binding and immunofluorescence of T cells; format: cell-based
Experimental: (§1) FIG. 3: Interference of MHC multimer staining with T cell function in vitro. (a) LLO91-99-specific T cells were stained for 2 hours with binding (LLO91-99/H2-K^d) or non-binding (p60217-225/H2-K^d) streptavidin-PE tetramer (“tet”) reagents at 4° C. or 37° C. MHC tetramer staining (upper), TCR expression (middle, filled black graph hidden behind TCR^high populations), and annexin V binding (lower) are shown in histogram format. (b) Immunofluorescence staining of LLO91-99-specific T cells one hour after incubation with LLO91-99/H2-K^d streptavidin-Alexa546 tetramers (red) at 4° C. or 37° C. (c) LLO91-99-specific T cells stained for 30 min with binding or non-binding tetramer reagents at 4° C., were then washed to remove unbound reagent and transferred to a chromium release assay (effector to target ratio approx. 5:1). LLO91-99 peptide concentration and percent specific lysis are shown on the x- and y-axes, respectively. The bars indicate lysis of MHC mismatched target cells (10^−8 M LLO91-99 peptide and no peptide conditions only) by effector cells treated with non-binding MHC tetramer reagents (filled bars) or binding reagents (open bars). (d) LLO91-99-specific T cells were treated as in (c), transferred into a proliferation assay in the presence of syngeneic irradiated splenocytes, and stimulated in the presence of peptide or various mitogens (x-axis).
LLO91-99 specific T cell lines were expanded in vitro as described before (18). MHC-multimer staining was performed by incubation of approximately 2 μg H2-K^d Strep-tag® II peptide multimer reagent (IBA GmbH) per 1×10^6 cells at 4° C. for 30 min. For epitope-tag staining cells were washed, fixed briefly in 1% paraformaldehyde, and subsequently stained for anti-HSV tag using an unconjugated primary mouse or rat mAb (e.g. TB067, Novagen) and a secondary anti-mouse or anti-rat-PE antibody (e.g. A85-1, PharMingen). Flow cytometry was performed using a FACSCalibur (Becton Dickinson) and FlowJo software. […] Conventional ^51Cr-release and ^3H-thymidine incorporation assays were performed as described before (18).
Phenotypic changes of cell populations have not been reported so far following epitope-specific T cell staining at low temperatures (4° C.). Under these conditions, TCR-MHC mediated signalling events become not activated. MHC multimer staining at higher temperatures (e.g. at room temperature (RT), or at 37° C.) has been performed to improve the intensity and/or stabilty of the fluorescent signal through epitope-specific internalization of the multimer. In order to analyze the impact of differential treatment of T cells on their phenotype, we compared LLO91-99-specific T cell lines following staining with LLO91-99/H2-K^d tetramers at 4° C. or 37° C. As a negative control, MHC tetramers containing different Listeria epitope ([…]) were used; these reagents cannot bind to TCRs of LLO91-99-specific T cells, thus controlling for potential peptide-independent effects.

[2] = test system: LLO91-99-specific T cells; test: 51Cr-release cytotoxicity assay of multimer-treated CTLs; format: cell-based
Experimental: as §1
FIG. 7: Reversible MHC multimer staining and T cell function. LLO91-99-specific T cells were stained for 30 min with binding LLO91-99/H2-K^d Strep-tag® II peptide/β2m-Strep-tag® II peptide-HSV-tag:Strep-Tactin® polypeptide (IBA GmbH) or non-binding (p60217-225/H2-K^d) multimer reagents and then extensively washed over 4 h in the presence or absence or d-biotin (1 mM, all done at 4° C.) prior to assays or adoptive transfer. (a) Staining for recombinant MHC-molecules (detected by epitope-tag staining, x-axis) on differently treated T cells. […] Numbers of viable bacteria (y-axis) were determined 48 h following Lysteria infection. […]

[3] = test system: LLO91-99-specific T cells; test: 3H-thymidine incorporation proliferation assay of multimer-treated T cells; format: cell-based; details: reagent remains on the cell surface
Experimental: FIG. 3: Interference of MHC multimer staining with T cell function in vitro. (a) LLO91-99-specific T cells were stained for 2 hours with binding (LLO91-99/H2-K^d) or non-binding (p60217-225/H2-K^d) streptavidin-PE tetramer (“tet”) reagents at 4° C. or 37° C. MHC tetramer staining (upper), TCR expression (middle, filled black graph hidden behind TCR^high populations), and annexin V binding (lower) are shown in histogram format. (b) Immunofluorescence staining of LLO91-99-specific T cells one hour after incubation with LLO91-99/H2-K^d streptavidin-Alexa546 tetramers (red) at 4° C. or 37° C. (c) LLO91-99-specific T cells stained for 30 min with binding or non-binding tetramer reagents at 4° C., were then washed to remove unbound reagent and transferred to a chromium release assay (effector to target ratio approx. 5:1). LLO91-99 peptide concentration and percent specific lysis are shown on the x- and y-axes, respectively. […]
FIG. 7: Reversible MHC multimer staining and T cell function. […] (a) Staining for recombinant MHC-molecules (detected by epitope-tag staining, x-axis) on differently treated T cells. […] Numbers of viable bacteria (y-axis) were determined 48 h following Lysteria infection. […]

Listeria monocytogenes = test: adoptive transfer of multimer-treated T cells, protection against Listeria infection; format: in vivo, BALB/c mice
Text: Six hours later, mice were infected with 2×10^4 Listeria monocytogenes. […] Control mice received NaCl only.
(a) Staining for recombinant MHC-molecules (detected by epitope-tag staining, x-axis) on differently treated T cells. (b) Cytotoxicity (% specific lysis, y-axis) of differently treated T cells in response to LLO91-99 peptide-coated target cells (peptide titration, x-axis) with an effector to target cell ratio of approx. 5:1, compare with FIG. 1c. (c) Proliferation (y-axis) of differently treated T cells stimulated with epitope or various mitogens (indicated on the x-axis) in the presence of syngeneic irradiated splenocytes. Compare with FIG. 1d. (d) Protection against Lysteria monocytogenes infection following adoptive transfer of 4.1×10^6 LLO91-99-specific T cells treated with binding (LLO91-99) or non-binding (p60217-225) MHC multimer reagents (indicated to the left). […] Numbers of viable bacteria (y-axis) were determined 48 h following Lysteria infection. Data are representative of three independent experiments, each with 2 mice per group.
LLO91-99 specific T cells were stained with H2-K^d Strep-tag® II peptide multimer reagents (IBA GmbH) at 4° C. […] Adoptive cell transfer was performed by injection of 1×10^7 cells—per mouse per group—into the tail vein of naive BALB/c mice.

[4] = target: T1, Strep-Tactin® polypeptide (mutated streptavidin) (Streptomyces avidinii, UniProt P22629, E68V/S69T/V71R); details: read-out: Kd of Strep-tag II peptide with Strep-Tactin; cited from earlier work
T1 construct: literature IBA GmbH
T1 sequence (P22629 38-163 E68V/S69T/V71R): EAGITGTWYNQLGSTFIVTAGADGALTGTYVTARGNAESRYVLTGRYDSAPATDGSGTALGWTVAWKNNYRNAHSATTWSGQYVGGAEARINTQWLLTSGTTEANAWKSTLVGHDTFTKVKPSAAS

LLO91-99/H2-K^d tetramers: conventional tetramers of H2-K^d/LLO91-99 complexes with PE- or Alexa546-conjugated streptavidin
MHC tetramer staining ([1]; 2 h incubation at 4° C.): high intensity staining
MHC tetramer staining ([1]; 2 h incubation at 37° C.): reduced and more diffuse staining pattern
annexin V binding (early marker of apoptosis) ([1]; after staining at 37° C.): increased binding of annexin V
surface TCR expression ([1]; after staining at 37° C.): substantial downregulation of surface TCR
immunofluorescence microscopy staining pattern ([1]; incubation at 4° C.): typical surface-staining pattern
immunofluorescence microscopy staining pattern ([1]; incubation at 37° C.): most multimers are internalized
lysis in the absence of peptide (spontaneous/bystander lysis) ([2]; reagent not dissociated): increased lysis in the absence of LLO91-99 peptide addition
maximum % specific lysis ([2]; stained CTLs washed, then 37° C., constant effector to target ratio): reduction in maximum % specific lysis
peptide sensitivity of cytotoxicity ([2]; various concentrations of LLO91-99 peptide): decreased peptide sensitivity
proliferation in response to antigen or mitogenic stimulation [3]: poorly proliferate
protection against Listeria infection following adoptive transfer (Listeria monocytogenes; 4.1×10^6 cells, reagent not dissociated): significantly reduced protection
LLO91-99-specific T cells recovered from recipient mice after transfer (Listeria monocytogenes; compared to control cells): much lower numbers
protection against Listeria infection (viable bacteria in spleen 48 h) (Listeria monocytogenes; transfer of 1×10^6 treated CTLs): indistinguishable from untreated mice
protection against Listeria infection (viable bacteria in spleen 48 h) (Listeria monocytogenes; transfer of 1×10^7 treated CTLs, listed as LLO91-99/H2-K^d tetramer reagents): dramatic loss of protective capacity
protection against Listeria infection (viable bacteria in spleen 48 h) (Listeria monocytogenes; transfer of 1×10^7 treated CTLs, listed as binding MHC tetramers): still confer some significant Listeria-specific protection

WSHPQFEK [Strep-tag® II peptide]
pKd [4]: ~6.00
